Earlier results in publication PMC12580894 (Cancer Research Communications, 2025).

Experiments:
[1] = system: patients with advanced solid tumours; settings: berzosertib with cisplatin
[2] = system: untreated advanced urothelial carcinoma

In the case of CNCc1ccc(-c2cc(-c3nc(-c4ccc(S(=O)(=O)C(C)C)cc4)cnc3N)on2)cc1 [berzosertib], the “patients with a confirmed PR” value ([1]; despite prior platinum exposure, 31 patients) is given as “Two”, the “most common AEs” value ([1]; phase I) is given as “hematologic in nature” and the DLTs observed ([1]; phase I, 31 patients) is given as “a grade 3 hypersensitivity reaction and a grade 3 increase in alanine aminotransferase”. The Hematologic toxicity rates ([2]; GC plus berzosertib versus GC alone) was “higher” and the “clinical benefit upon the addition of berzosertib” value ([2]; gemcitabine and cisplatin (GC) with or without berzosertib) was “no clinical benefit”.
